Data taken from US8754073B2, “Substituted piperazino-dihydrothienopyrimidines” (Boehringer Ingelheim International GmbH, priority 2007, dated 2014).
Structures can show the parent of a compound that is named as a salt.

Molecular target: PDE4B (Homo sapiens, UniProt Q07343)
Assay: Scintillation Proximity Assay (SPA) of PDE4B enzyme activity ([H3]-cAMP cleavage)
Type: biochemical
Conditions: test substance 1 μM
Summary of the method: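 Percent inhibition at 1 μM compound, measured against an uninhibited reaction. PDE4B hydrolysed tritiated cAMP for one hour at 30 °C, then scintillator beads were added to capture [H3]-5′-AMP. Light events were counted after 45 min bead settling.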

[1] = one-hour incubation with [H3]-cAMP at 30° C.
[2] = one-hour incubation of [H3]-cAMP with PDE4B enzyme at 30° C.

PDE4B, sequence (Q07343 whole entry, species assumed): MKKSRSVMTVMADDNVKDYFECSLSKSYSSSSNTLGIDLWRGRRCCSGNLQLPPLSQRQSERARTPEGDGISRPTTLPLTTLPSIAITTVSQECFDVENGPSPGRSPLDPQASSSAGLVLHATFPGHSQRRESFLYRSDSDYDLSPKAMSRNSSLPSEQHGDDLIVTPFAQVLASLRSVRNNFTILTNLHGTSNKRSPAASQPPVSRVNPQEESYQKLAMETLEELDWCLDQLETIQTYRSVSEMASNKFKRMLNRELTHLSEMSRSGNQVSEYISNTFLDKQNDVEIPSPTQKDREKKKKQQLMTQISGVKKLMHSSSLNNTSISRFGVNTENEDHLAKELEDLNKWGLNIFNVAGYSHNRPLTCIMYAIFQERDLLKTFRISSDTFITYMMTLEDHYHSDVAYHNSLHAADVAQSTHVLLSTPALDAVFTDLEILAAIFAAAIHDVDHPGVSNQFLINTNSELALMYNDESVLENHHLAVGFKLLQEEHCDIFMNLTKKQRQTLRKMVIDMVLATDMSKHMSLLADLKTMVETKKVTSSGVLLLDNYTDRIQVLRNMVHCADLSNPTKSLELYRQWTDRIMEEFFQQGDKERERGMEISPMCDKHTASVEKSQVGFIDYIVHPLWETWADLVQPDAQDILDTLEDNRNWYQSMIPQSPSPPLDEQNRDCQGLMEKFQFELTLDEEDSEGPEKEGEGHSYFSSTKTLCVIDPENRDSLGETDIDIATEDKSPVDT

Row | inhibition at 1 µM [1] [%] | inhibition at 1 µM [2] [%] | Compound
1 | 78 | – | CC(C)c1ccc(OC2CCN(c3nc4c(c(N[C@H]5CCC(=O)N(C)C5)n3)[S+]([O-])CC4)CC2)cc1 (stereo partly shown) [Example 267]
2 | 89 | – | COCC1(c2ccc(Cl)cc2)CCN(c2nc3c(c(NC4(CO)CC4)n2)[S+]([O-])CC3)CC1 (stereo not shown) [Example 303]
3 | 97 | – | CN1C[C@@H](Nc2nc(N3CCC(c4cc(-c5ccco5)n[nH]4)CC3)nc3c2[S+]([O-])CC3)CCC1=O (stereo partly shown) [Example 190]
4 | – | 96 | CN1C[C@@H](Nc2nc(N3CCC(C#N)(c4ccccc4)CC3)nc3c2[S+]([O-])CC3)CCC1=O (stereo partly drawn) [Example 55, 1-[4-((S)-1-Methyl-6-Oxopiperidin-3-Ylamino)-5-Oxo-6,7-Dihydro-5H-5λ^4-Thieno[3,2-d]Pyrimidine-2-Yl]-4-Phenylpiperidine-4-Carbonitrile]
5 | – | 96 | [O-][S+]1CCc2nc(N3CCC(c4c[nH]c5ccccc45)CC3)nc(Nc3cccc(F)c3)c21 (stereo not shown) [Example 71]
6 | – | 96 | [O-][S+]1CCc2nc(N3CCC(c4ccncc4)CC3)nc(Nc3cccc(F)c3)c21 (stereo not shown) [Example 78, (3-Fluorophenyl)-[5-Oxo-2-(3.4.5.6-Tetrahydro-2H-[4,4′]Bipyridinyl-1-Yl)-6,7-Dihydro-5H-5λ^4-Thieno[3,2-d]Pyrimidin-4-Yl]-Amine Trifluoroacetate]
7 | 88 | – | CN1CCC(N(C)C(=O)c2cccc(C3CCN(c4nc5c(c(NC6CCOCC6)n4)[S+]([O-])CC5)CC3)c2)CC1 (stereo not shown) [Example 248]
8 | – | 67 | CC(C)[C@H](CO)Nc1nc(N2CCC3(CC2)CN(S(C)(=O)=O)c2ccccc23)nc2c1[S+]([O-])CC2 (stereo partly shown) [Example 15]
9 | 83 | – | [O-][S+]1CCc2nc(N3CCC(c4cc(-c5cccs5)[nH]n4)CC3)nc(NC3CCOCC3)c21 (stereo not shown) [Example 284]
10 | 81 | – | CC(C)[C@H](CO)Nc1nc(N2CCC(O)(c3ccc(Cl)cc3)CC2)nc2c1[S+]([O-])CC2 (stereo partly shown) [Example 296]
11 | 90 | – | O=C(c1cccc(C2CCN(c3nc4c(c(NC5CCOCC5)n3)[S+]([O-])CC4)CC2)c1)N1CCOCC1 (stereo not shown) [Example 247]
12 | 94 | – | CN1C[C@@H](Nc2nc(N3CCC(Oc4ccncc4)CC3)nc3c2[S+]([O-])CC3)CCC1=O (stereo partly shown) [Example 264]
13 | – | 97 | [O-][S+]1CCc2nc(N3CCC(c4nc5ccccc5o4)CC3)nc(NC3(CO)CC3)c21 (stereo not shown) [Example 98, {1-[2-(4-Benzoxazol-2-Yl-Piperidin-1-Yl)-5-Oxo-6,7-Dihydro-5H-5λ^4-Thieno[3,2-d]Pyrimidin-4-Ylamino]-Cyclopropyl}-Methanol]
14 | – | 94 | [O-][S+]1CCc2nc(N3CCC(c4cccc(Br)c4)CC3)nc(NC3(CO)CC3)c21 (stereo not shown) [Example 94]
15 | 96 | – | CN1CCc2ccc(OC3CCN(c4nc5c(c(NC6CCOCC6)n4)[S+]([O-])CC5)CC3)cc2CC1 (stereo not shown) [Example 186, (2-[4-(3-Methyl-2,3,4,5-Tetrahydro-1H-Benzo[d]Azepin-7-Yloxy)-Piperidin-1-Yl]-5-Oxo-6,7-Dihydro-5H-5λ^4-Thieno[3,2-d]Pyrimidin-4-Yl)-(Tetrahydropyran-4-Yl)-Amine]
16 | 94 | – | CC(C)c1ccc(OC2CCN(c3nc4c(c(NC5CCOCC5)n3)[S+]([O-])CC4)CC2)cc1 (stereo not shown) [Example 269]
17 | – | 94 | [O-][S+]1CCc2nc(N3CCC(c4nc(-c5ccncc5)no4)CC3)nc(NC3(CO)CC3)c21 (stereo not shown) [Example 116]
18 | – | 94 | [O-][S+]1CCc2nc(N3CCC(c4ccc(C(F)(F)F)cc4)CC3)nc(NC3CCOCC3)c21 (stereo not shown) [Example 96, {5-Oxo-2-[4-(4-Trifluoromethylphenyl)-Piperidin-1-Yl]-6,7-Dihydro-5H-5λ^4-Thieno[3,2-d]Pyrimidin-4-Yl}-(Tetrahydropyran-4-Yl)-Amine]
19 | 95 | – | Cc1cn(C)nc1CN(C)C(=O)c1ccc(C2CCN(c3nc4c(c(NC5CCOCC5)n3)[S+]([O-])CC4)CC2)cc1 (stereo not shown) [Example 226]
20 | 91 | – | COCC1(c2ccc(Cl)cc2)CCN(c2nc3c(c(NC4CCOCC4)n2)[S+]([O-])CC3)CC1 (stereo not shown) [Example 302]
21 | 96 | – | CC(=O)NCC1(c2ccccc2)CCN(c2nc3c(c(N[C@H]4CCC(=O)N(C)C4)n2)[S+]([O-])CC3)CC1 (stereo partly shown) [Example 204, N-{1-[4-(1-methyl-6-oxopiperidin-3-ylamino)-5-oxo-6,7-dihydro-5H-5λ^4-thieno[3,2-d]pyrimidin-2-yl]-4-phenylpiperidin-4-ylmethyl}-acetamide]
22 | – | 96 | [O-][S+]1CCc2nc(N3CCC(O)(c4cc(F)cc(F)c4)CC3)nc(Nc3cccc(F)c3)c21 (stereo not shown) [Example 77]
23 | – | 95 | [O-][S+]1CCc2nc(N3CCC(c4c[nH]cn4)CC3)nc(Nc3cccc(F)c3)c21 (stereo not shown) [Example 72]
24 | 89 | – | [O-][S+]1CCc2nc(N3CCC(CO)(c4ccc(Cl)cc4)CC3)nc(Nc3cccc(F)c3)c21 (stereo not shown) [Example 291]
25 | – | 97 | CCOC(=O)c1ccc2c(C3CCN(c4nc5c(c(NC6(CO)CC6)n4)[S+]([O-])CC5)CC3)c[nH]c2c1 (stereo not shown) [Example 29, ethyl 3-{1-[4-(1-hydroxymethylcyclopropylamino)-5-oxo-6,7-dihydro-5H-5λ^4-thieno[3,2-d]pyrimidin-2-yl]-piperidin-4-yl}-1H-indole-6-carboxylate]

Row | inhibition at 1 µM [1] [%] | inhibition at 1 µM [2] [%] | Compound
26 | – | 62 | O=C1Nc2ccccc2C2(CCN(c3nc4c(c(NC5CCOCC5)n3)[S+]([O-])CC4)CC2)N1 (stereo not shown) [Example 66]
27 | 91 | – | CN(C(=O)c1cccc(C2CCN(c3nc4c(c(NC5CCOCC5)n3)[S+]([O-])CC4)CC2)c1)C1CCOCC1 (stereo not shown) [Example 256]
28 | – | 86 | CC(C)c1noc(C2CCN(c3nc4c(c(N[C@@H](CO)C(C)C)n3)[S+]([O-])CC4)CC2)n1 (stereo partly shown) [Example 160]
29 | – | 92 | [O-][S+]1CCc2nc(N3CCC(c4ccccc4F)CC3)nc(NC3CCOCC3)c21 (stereo not shown) [Example 88]
30 | – | 89 | [O-][S+]1CCc2nc(N3CCC(c4nnc5ccccn45)CC3)nc(NC3CCOCC3)c21 (stereo not shown) [Example 124]
31 | 94 | – | O=C(C1CC1)N1CCc2ccc(OC3CCN(c4nc5c(c(NC6CCOCC6)n4)[S+]([O-])CC5)CC3)cc2CC1 (stereo not shown) [Example 214, cyclopropyl-(7-{1-[5-oxo-4-(tetrahydropyran-4-ylamino)-6,7-dihydro-5H-5λ^4-thieno[3,2-d]pyrimidin-2-yl]-piperidin-4-yloxy}-1,2,4,5-tetrahydrobenzo[d]azepin-3-yl)-methanone]
32 | 96 | – | CN1C[C@@H](Nc2nc(N3CCC(c4nc5cc(F)ccc5o4)CC3)nc3c2[S+]([O-])CC3)CCC1=O (stereo partly shown) [Example 195, 5-{2-[4-(5-fluorobenzoxazol-2-yl)-piperidin-1-yl]-5-oxo-6,7-dihydro-5H-5λ^4-thieno[3,2-d]pyrimidin-4-ylamino}-1-methylpiperidin-2-one]
33 | 80 | – | COCC(=O)NCC1(c2ccccc2)CCN(c2nc3c(c(NC4(CO)CC4)n2)[S+]([O-])CC3)CC1 (stereo not shown) [Example 216]
34 | – | 90 | CC(C)[C@H](CO)Nc1nc(N2CCC(C#N)(c3ccccc3)CC2)nc2c1[S+]([O-])CC2 (stereo partly shown) [Example 25]
35 | – | 92 | CC(C)[C@H](CO)Nc1nc(N2CCC(c3nc(-c4cccnc4)no3)CC2)nc2c1[S+]([O-])CC2 (stereo partly shown) [Example 162]
36 | 93 | – | CN(C(=O)c1ccc(C2CCN(c3nc4c(c(NC5CCOCC5)n3)[S+]([O-])CC4)CC2)cc1)C1CCOCC1 (stereo not shown) [Example 224]
37 | – | 90 | CS(=O)(=O)N1CC2(CCN(c3nc4c(c(NC5CCOCC5)n3)[S+]([O-])CC4)CC2)c2ccccc21 (stereo not shown) [Example 59]
38 | – | 94 | CC(C)[C@H](CO)Nc1nc(N2CCC(c3nnc(-c4ccc(F)cc4)o3)CC2)nc2c1[S+]([O-])CC2 (stereo partly shown) [Example 159]
39 | 96 | – | [O-][S+]1CCc2nc(N3CCC(c4nc5ccc(Cl)cc5[nH]4)CC3)nc(NC3CCOCC3)c21 (stereo not shown) [Example 191]
40 | – | 94 | [O-][S+]1CCc2nc(N3CCC(c4ccc(Cl)cc4)CC3)nc(NC3CCOCC3)c21 (stereo not shown) [Example 6, {2-[4-(4-chlorophenyl)-piperidin-1-yl]-5-oxo-6,7-dihydro-5H-5λ^4-thieno[3,2-d]pyrimidin-4-yl}-(tetrahydropyran-4-yl)-amine]
41 | – | 91 | CC(C)(O)[C@H](Nc1nc(N2CCC(c3ccc(Cl)cc3)CC2)nc2c1[S+]([O-])CC2)c1ccc(F)cc1 (stereo partly drawn) [Example 4, (R)-1-{2-[4-(4-chlorophenyl)-piperidin-1-yl]-5-oxo-6,7-dihydro-5H-5λ^4-thieno[3,2-d]pyrimidin-4-ylamino}-1-(4-fluorophenyl)-2-methylpropan-2-ol]
42 | – | 95 | [O-][S+]1CCc2nc(N3CCC(c4noc5cc(F)ccc45)CC3)nc(NC3(CO)CC3)c21 (stereo not shown) [Example 105]
43 | 93 | – | [O-][S+]1CCc2nc(N3CCC(c4n[nH]c5ccccc45)CC3)nc(NC3(CO)CC3)c21 (stereo not shown) [Example 220]
44 | – | 94 | CC(C)[C@H](CO)Nc1nc(N2CCC(c3nc4cc(Cl)ccc4s3)CC2)nc2c1[S+]([O-])CC2 (stereo partly shown) [Example 149]
45 | 95 | – | COC1(c2ccc(Cl)cc2)CCN(c2nc3c(c(N[C@H]4CCC(=O)N(C)C4)n2)[S+]([O-])CC3)CC1 (stereo partly shown) [Example 261, 5-{2-[4-(4-chlorophenyl)-4-methoxypiperidin-1-yl]-5-oxo-6,7-dihydro-5H-5λ^4-thieno[3,2-d]pyrimidin-4-ylamino}-1-methylpiperidin-2-one]
46 | – | 56 | O=S1(=O)CCc2nc(N3CCC(c4ccc(Cl)cc4)CC3)nc(NC3(CO)CC3)c21 [Example 333, (1-{2-[4-(4-chlorophenyl)-piperidin-1-yl]-5.5-dioxo-6,7-dihydro-5H-5λ^6-thieno[3,2-d]pyrimidin-4-ylamino}-cyclopropyl)-methanol]
47 | – | 97 | [O-][S+]1CCc2nc(N3CCC(c4cccc(O)c4)CC3)nc(Nc3cccc(F)c3)c21 (stereo not shown) [Example 76]
48 | – | 92 | O=C1Nc2ccccc2C2(CCN(c3nc4c(c(NC5(CO)CC5)n3)[S+]([O-])CC4)CC2)O1 (stereo not shown) [Example 36]
49 | 92 | – | [O-][S+]1CCc2nc(N3CCC(OCc4ccccc4)(c4ccc(Cl)cc4)CC3)nc(NC3(CO)CC3)c21 (stereo not shown) [Example 320]
